GI50 and Ki data for 22 molecules are collected here from patent US10844044B2 (Vanderbilt University, priority 2018, dated 2020).

The test system of assay [1] is MV4:11 human cancer cell lines. Nature of the assay: Anti-proliferative activity, CellTiter-Glo viability assay, 7 day protocol. Type of assay: cell-based. The settings on record: Homo sapiens, MV4:11 cells, 7 day incubation, read-out: GI50 on cellular proliferation of MV4:11 human cancer cell lines. The procedure, abridged:
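Luminescent CellTiter-Glo readout after 7-day compound exposure of MV4:11 cells plated at 3600 cells/ml (final DMSO 0.1%). GI50 derived from three biological × three technical replicates, reported as mean ± S.E.M.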

Another assay has as its target WDR5 (Homo sapiens (Human), UniProt P61964). The assay can be described thus: TR-FRET binding assay (displacement of 10mer-Thr-FAM probe from WDR5). The settings on record: read-out: Ki for Inhibition of WDR5 by TR-FRET assay.
The mark [2] stands for this setting: TR-FRET, 10mer-Thr-FAM probe, WDR5-His tag 2 nM, pH 7.0.

Where two headings read alike, the source gives them in different places.

In the case of `Cc1cc([C@@H](NC(=O)c2cc(Cn3ccsc3=N)cc(-c3cn(C(C)C)nc3C(F)(F)F)c2)C2CC2)ccc1F` [Example 322, (S)—N-(Cyclopropyl(4-fluoro-3-methylphenyl)methyl)-3-((2-iminothiazol-3(2H)-yl)methyl)-5-(1-isopropyl-3-(trifluoromethyl)-1H-pyrazol-4-yl)benzamide], the GI50 in assay [1] (MV4-11, 168 h) was found to be 150 nM. Further, the Ki at WDR5 was < 0.1 nM.
For `CCn1cc(-c2cc(Cn3ccsc3=N)cc(C(=O)N[C@H](c3ccc(Cl)c(F)c3)C3CC3)c2)c(C(F)(F)F)n1` [Example 324, (S)—N-((4-Chloro-3-fluorphenyl)(cyclopropyl)methyl)-3-(1-ethyl-3-(trifluoromethyl)-1H-pyrazol-4-yl)-5-((2-iminothiazol-3(2H)-yl)methyl)benzamide], in that order: < 100 nM and < 0.1 nM.
As to `Cc1cc([C@@H](NC(=O)c2cc(Cn3ccsc3=N)cc(-c3cn(C)nc3C(F)(F)F)c2)C2CC2)ncc1F` [Example 325, (S)—N-(Cyclopropyl(5-fluoro-4-methylpyridin-2-yl)methyl)-3-((2-iminothiazol-3(2H)-yl)methyl)-5-(1-methyl-3-(trifluoromethyl)-1H-pyrazol-4-yl)benzamide], in assay [1] (MV4-11, 168 h), the GI50 was < 100 nM. Also, the inhibitory constant (Ki) at WDR5 (setting [2]) was < 0.1 nM.
For `COc1cc([C@@H](NC(=O)c2cc(Cn3ccsc3=N)cc(-c3cn(C)nc3C(F)(F)F)c2)C2CC2)ccc1F` [Example 327, (S)—N-(Cyclopropyl(4-fluoro-3-methoxyphenyl)methyl)-3-((2-iminothiazol-3(2H)-yl)methyl)-5-(1-methyl-3-(trifluoromethyl)-1H-pyrazol-4-yl)benzamide], in that order: < 100 nM and < 0.1 nM.
As for `CCn1cc(-c2cc(Cn3ccsc3=N)cc(C(=O)N[C@H](c3ccc(F)c(OC)c3)C3CC3)c2)c(C(F)(F)F)n1` [Example 328, (S)—N-(Cyclopropyl(4-fluoro-3-methoxyphenyl)methyl)-3-(1-ethyl-3-(trifluoromethyl)-1H-pyrazol-4-yl)-5-((2-iminothiazol-3(2H)-yl)methyl)benzamide], the GI50 in assay [1] (MV4-11, 168 h) was < 100 nM. The Ki on WDR5 (setting [2]) was < 0.1 nM.
With `Cc1cc([C@@H](NC(=O)c2cc(CN3CCCC3=N)cc(-c3ccc(F)cc3C#N)c2)C2CC2)ccc1F` [Example 333, (S)-2′-Cyano-N-(cyclopropyl(4-fluoro-3-methylphenyl)methyl)-4′-fluoro-5-((2-iminopyrrolidin-1-yl)methyl)-[1,1′-biphenyl]-3-carboxamide], the GI50 in assay [1] (MV4-11, 168 h) was found to be 520 nM. The Ki on WDR5 (setting [2]) worked out at 0.39 nM.
For `Cc1cc([C@@H](NC(=O)c2cc(CN3CCCC3=N)cc(-c3cccnc3C(F)(F)F)c2)C2CC2)ccc1F` [Example 334, (S)—N-(Cyclopropyl(4-fluoro-3-methylphenyl)methyl)-3-((2-iminopyrrolidin-1-yl)methyl)-5-(2-(trifluoromethyl)pyridin-3-yl)benzamide], in that order: < 100 nM and < 0.1 nM.
The corresponding values for `Cc1cc([C@@H](NC(=O)c2cc(CN3CCCC3=N)cc(-c3ccc(F)cc3C(F)(F)F)c2)C2CC2)ccc1F` [Example 335, (S)—N-(Cyclopropyl(4-fluoro-3-methylphenyl)methyl)-4′-fluoro-5-((2-iminopyrrolidin-1-yl)methyl)-2′-(trifluoromethyl)-[1,1′-biphenyl]-3-carboxamide] are < 100 nM and < 0.1 nM.
The corresponding values for `Cc1cc([C@@H](NC(=O)c2cc(CN3CCCC3=N)cc(-c3cn(C(C)C)nc3C(F)(F)F)c2)C2CC2)ccc1F` [Example 336, (S)—N-(Cyclopropyl(4-fluoro-3-methylphenyl)methyl)-3-((2-iminopyrrolidin-1 yl)methyl)-5-(1-isopropyl-3-(trifluoromethyl)-1H-pyrazol-4-yl)benzamide] are < 100 nM and < 0.1 nM.
With `Cc1cc([C@@H](NC(=O)c2cc(CN3CCCC3=N)cc(-c3cn(C)nc3C(F)(F)F)c2)C2CC2)ccc1F` [Example 337, (S)—N-(Cyclopropyl(4-fluoro-3-methylphenyl)methyl)-3-((2-iminopyrrolidin-1-yl)methyl)-5-(1-methyl-3-(trifluoromethyl)-1H-pyrazol-4-yl)benzamide], the GI50 in assay [1] (MV4-11, 168 h) was < 100 nM. Moreover, at WDR5 (setting [2]), the Ki was < 0.1 nM.
For `CCn1cc(-c2cc(CN3CCCC3=N)cc(C(=O)N[C@H](c3ccc(F)c(Cl)c3)C3CC3)c2)c(C(F)(F)F)n1` [Example 338, (S)—N-((3-Chloro-4-fluorophenyl)(cyclopropyl)methyl)-3-(1-ethyl-3-(trifluoromethyl)-1H-pyrazol-4-yl)-5-((2-iminopyrrolidin-1-yl)methyl)benzamide], in that order: < 100 nM and < 0.1 nM.
For `COc1cc([C@@H](NC(=O)c2cc(CN3CCCC3=N)cc(-c3cn(C)nc3C(F)(F)F)c2)C2CC2)ccc1F` [Example 339, (S)—N-(Cyclopropyl(4-fluoro-3-methoxyphenyl)methyl)-3-((2-iminopyrrolidin-1-yl)methyl)-5-(1-methyl-3-(trifluoromethyl)-1H-pyrazol-4-yl)benzamide], the GI50 in assay [1] (MV4-11, 168 h) worked out at 100 nM. Also, the Ki at WDR5 was < 0.1 nM.
On to `N=C1CCCN1Cc1cc(C(=O)N[C@H](c2ccc(F)c(Cl)c2)C2CC2)cc(-c2cccnc2C(F)(F)F)c1` [Example 340, (S)—N-((3-Chloro-4-fluorophenyl)(cyclopropyl)methyl)-3-((2-iminopyrrolidin-1-yl)methyl)-5-(2-(trifluoromethyl)pyridin-3-yl)benzamide], for which the GI50 in assay [1] (MV4-11, 168 h) was < 100 nM. Moreover, the Ki at WDR5 (setting [2]) is < 0.1 nM.
Take `Cn1cc(-c2cc(CN3CCCC3=N)cc(C(=O)N[C@H](c3ccc(F)c(F)c3)C3CC3)c2)c(C(F)(F)F)n1` [Example 341, (S)—N-(Cyclopropyl(3,4-difluorophenyl)methyl)-3-((2-iminopyrrolidin-1-yl)methyl)-5-(1-methyl-3-(trifluoromethyl)-1H-pyrazol-4-yl)benzamide]: the GI50 in assay [1] (MV4-11, 168 h) is 100 nM. The inhibition constant (Ki) at WDR5 (setting [2]) is 0.35 nM.
The corresponding values for `Cc1cc([C@@H](NC(=O)c2cc(Cn3ccccc3=N)cc(-c3cccnc3C(F)(F)F)c2)C2CC2)ccc1F` [Example 342, (S)—N-(Cyclopropyl(4-fluoro-3-methylphenyl)methyl)-3-((2-iminopyridin-1(2H)-yl)methyl)-5-(2-(trifluoromethyl)pyridin-3-yl)benzamide] are < 100 nM and < 0.1 nM.
The corresponding values for `Cc1cc([C@@H](NC(=O)c2cc(Cn3cccc(C)c3=N)cc(-c3cccnc3C(F)(F)F)c2)C2CC2)ccc1F` [Example 343, (S)—N-(Cyclopropyl(4-fluoro-3-methylphenyl)methyl)-3-((2-imino-3-methylpyridin-1(2H)-yl)methyl)-5-(2-(trifluoromethyl)pyridin-3-yl)benzamide] are 250 nM and 0.51 nM.
For the molecule `Cc1ccn(Cc2cc(C(=O)N[C@H](c3ccc(F)c(C)c3)C3CC3)cc(-c3cccnc3C(F)(F)F)c2)c(=N)c1` [Example 344, (S)—N-(Cyclopropyl(4-fluoro-3-methylphenyl)methyl)-3-((2-imino-4-methylpyridin-1(2H)-yl)methyl)-5-(2-(trifluoromethyl)pyridin-3-yl)benzamide], in assay [1] (MV4-11, 168 h), the GI50 amounted to 680 nM. Further, at WDR5, the Ki is 0.48 nM.
In the case of `CCOc1c(C(=O)N[C@H](c2ccc(F)c(C)c2)C2CC2)cc(Cn2ccccc2=N)cc1-c1cn(C)nc1C(F)(F)F` [Example 347, (S)—N-(Cyclopropyl(4-fluoro-3-methylphenyl)methyl)-2-ethoxy-5-((2-iminopyridin-(2H)-yl)methyl)-3-(1-methyl-3-(trifluoromethyl)-1H-pyrazol-4-yl)benzamide], the GI50 in assay [1] (MV4-11, 168 h) was < 100 nM. Further, the Ki at WDR5 (setting [2]) was < 0.1 nM.
For `CCOc1c(C(=O)N[C@H](c2ccc(F)c(C)c2)C2CC2)cc(Cn2cc(F)ccc2=N)cc1-c1cn(C)nc1C(F)(F)F` [Example 349, (S)—N-(Cyclopropyl(4-fluoro-3-methylphenyl)methyl)-2-ethoxy-5-((5-fluoro-2-iminopyridin-1(2H)-yl)methyl)-3-(1-methyl-3-(trifluoromethyl)-1H-pyrazol-4-yl)benzamide], in assay [1] (168 h), the GI50 was < 100 nM. For the same molecule, the Ki at WDR5 was < 0.1 nM.
Consider `Cc1cc([C@@H](NC(=O)c2cc(Cn3cccc(F)c3=N)cc(-c3cccnc3C(F)(F)F)c2)C2CC2)ccc1F` [Example 350, (S)—N-(Cyclopropyl(4-fluoro-3-methylphenyl)methyl)-3-((3-fluoro-2-iminopyridin-1(2H)-yl)methyl)-5-(2-(trifluoromethyl)pyridin-3-yl)benzamide], for which the GI50 in assay [1] (MV4-11, 168 h) is 140 nM. The Ki on WDR5 (setting [2]) was 0.12 nM.
The corresponding values for `Cc1cc([C@@H](NC(=O)c2cc(Cn3cccc(F)c3=N)cc(-c3cn(C)nc3C(F)(F)F)c2)C2CC2)ccc1F` [Example 351, (S)—N-(Cyclopropyl(4-fluoro-3-methylphenyl)methyl)-3-((3-fluoro-2-iminopyridin-1(2H)-yl)methyl)-5-(1-methyl-3-(trifluoromethyl)-1H-pyrazol-4-yl)benzamide] are < 100 nM and < 0.1 nM.
The corresponding values for `Cc1cc([C@@H](NC(=O)c2cc(Cn3ccccc3=N)cc(-c3cn(C)nc3C(F)(F)F)c2)C2CC2)ccc1F` [Example 352, (S)—N-(cyclopropyl(4-fluoro-3-methylphenyl)methyl)-3-((2-iminopyridin-1(2H)-yl)methyl)-5-(1-methyl-3-(trifluoromethyl)-1H-pyrazol-4-yl)benzamide] are < 100 nM and < 0.1 nM.

For orientation: Ki means a measure of affinity in units of concentration, obtained from inhibition or displacement.
